# From US20040236269A1, “Microsurgical tissue treatment system” (priority 2002, published 2004)
# Test: Delivery of a topical anesthetic through micro-ablated stratum corneum; sensation probed with 20 gauge needle or by pinching
# Type: in vivo
# Settings: solution of 4% lidocaine applied for five minutes to approx. 1 cm^2 area ablated by piezoelectric actuator with 60 micron aluminum oxide particles, 10-15 pulses, 20 kHz; probed with 20 gauge needle or pinching
# Protocol: A piezoelectric actuator was fitted with 60 micron aluminum oxide particles fixed to its surface so as to provide an approximate 1 cm^2 treatment area. Ten to fifteen pulses of less than one second duration were applied with force of less than 1 pound to the area and frequency of 20 kHz. […] A solution of 4% lidocaine was applied to the area and incubated for five minutes. The excess lidocaine was wiped off, and a series of probes was made in and around the area of treatment using a 20 gauge needle or by pinching.
structure (smiles),measurement,value
CCN(CC)CC(=O)Nc1c(C)cccc1C [lidocaine],anesthesia (lack of sensation within and in close proximity to the treatment site),significant anesthesia was obtained
